Where two headings read alike, the source gives them in different places. Where a SMILES comes first, the peptide text is derived from it. Where no end group is shown, it is not given here. K(Rhod) = not defined here
How the values were obtained:
CXCR4 = CXCR4 (Homo sapiens, UniProt P61073); assay: Inhibition of SDF-1α-induced intracellular calcium release (Fura-2/AM, HeLa and U87 cells expressing CXCR4); format: cell-based; settings: for Concentration, required for complete inhibition of [Ca^2+ I] release: Table 3, peptides from second transmembrane domain of CXCR4; for Concentration, required for complete inhibition of [Ca ^2+ i] release: Table 1
Procedure: The effect of the peptides on CXCR4-mediated calcium fluxes in HeLa cells that naturally express the CXCR4 receptor and U87 cells stably expressing the CXCR4 receptor was tested as follows. Cells grown on Nunc cover glass chamber slides were incubated with 1 micromolar Fura-2/AM for 20 min in a CO2-incubator, rinsed with PBS and mounted on the stage of a Zeiss Axiovert inverted microscope. [Ca^2+]i measurements were performed using an Attofluor digital imaging system (Atto Instruments, Rockville, MD). Fluorescence of Fura was excited at alternating wavelength of 340 and 380 nm. Fluorescence was monitored by an intensified CCD camera using a 505 cut-off filter. Calibrations of [Ca^2+]i signals were performed using Ca^2+ standards containing 1 micromolar Fura. CXCR4 antagonists were tested on HeLa cells and U87 cells. Stromal cell-derived factor-1α (SDF-1α) was used as a specific CXCR4 agonist.
CCR5 antagonists, which were used in selectivity studies as described below, were tested on HEK (human kidney […]) cells stably expressing the CCR5 receptor and RANTES was used as an agonist. The antagonist activity of the peptides was evaluated by measuring the inhibition of agonist-evoked intracellular Ca^2+i release. These measurements were carried out in Fura-2/AM-treated cells, utilizing an Attofluor digital imaging system as described above. The agonist was SDF-1α.
Further optimization and structure-activity studies allowed to obtain antagonists derived from all but the third and fifth transmembrane domains (Table 2). Table 1. Activity of synthetic peptides corresponding to predicted transmembrane domains of CXCR4 in inhibition of SDF-1α-induced intracellular calcium release.
Table 2. Biological activity of CXCR4 antagonists derived from different transmembrane domains. Anti signaling activity was determined in inhibition of SDF-1α-induced intracellular calcium release. Anti-HIV-1 activity was assessed in cytoprotection assay utilizing CEM-SS cells infected with HIV-1RF.

CCKAR = target: T1, CCKAR (Rattus norvegicus, UniProt P30551); assay: Inhibition of binding of fluorescent agonist RG-CCK-8, quantitative confocal laser scanning microscopy
T1 construct: expressed in transfected cells; host or cells: CHO cells
T1 sequence (P30551 1-444): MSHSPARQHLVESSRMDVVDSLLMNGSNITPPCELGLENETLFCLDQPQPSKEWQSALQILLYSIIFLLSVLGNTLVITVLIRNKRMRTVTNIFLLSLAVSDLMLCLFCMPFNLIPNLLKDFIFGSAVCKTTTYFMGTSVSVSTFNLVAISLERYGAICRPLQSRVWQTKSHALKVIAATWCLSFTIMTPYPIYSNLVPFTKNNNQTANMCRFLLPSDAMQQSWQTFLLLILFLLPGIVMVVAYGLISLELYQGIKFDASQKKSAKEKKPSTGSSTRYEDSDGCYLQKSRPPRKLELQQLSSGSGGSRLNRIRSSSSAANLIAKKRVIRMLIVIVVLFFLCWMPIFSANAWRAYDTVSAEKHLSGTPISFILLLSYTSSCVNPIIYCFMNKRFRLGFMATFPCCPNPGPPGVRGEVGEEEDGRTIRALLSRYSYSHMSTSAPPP

HIV-1RF = assay: Anti-HIV-1 cytoprotection assay, CEM-SS cells infected with HIV-1 strain RF; format: cell-based
[1] = cytoprotection assay, CEM-SS cells infected with HIV-1RF, read-out: EC50 in anti-HIV-1 assay
[2] = SDF-1α-induced intracellular calcium release

Sequence of CXCR4 (P61073 whole entry, the tested form may be a part): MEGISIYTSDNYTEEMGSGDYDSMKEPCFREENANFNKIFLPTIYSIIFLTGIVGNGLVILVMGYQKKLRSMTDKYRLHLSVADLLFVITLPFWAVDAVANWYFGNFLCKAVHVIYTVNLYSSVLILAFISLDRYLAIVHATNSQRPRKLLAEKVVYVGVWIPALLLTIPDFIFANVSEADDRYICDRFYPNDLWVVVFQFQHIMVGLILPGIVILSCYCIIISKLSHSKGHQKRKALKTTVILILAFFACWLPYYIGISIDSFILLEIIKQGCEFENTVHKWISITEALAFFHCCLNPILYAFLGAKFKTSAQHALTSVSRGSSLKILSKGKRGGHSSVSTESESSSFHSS

In the case of `CC[C@H](C)[C@H](NC(=O)[C@@H](NC(=O)[C@H](Cc1ccccc1)NC(=O)[C@H](CC(C)C)NC(=O)[C@H](CC(C)C)NC(C)=O)C(C)C)C(=O)N[C@H](C(=O)N[C@@H](CC(C)C)C(=O)N1CCC[C@H]1C(=O)N[C@@H](Cc1ccccc1)C(=O)N[C@@H](Cc1c[nH]c2ccccc12)C(=O)N[C@@H](C)C(=O)N[C@H](C(=O)N[C@@H](CC(=O)O)C(=O)N[C@@H](C)C(=O)N[C@H](C(=O)N[C@@H](C)C(=O)N[C@@H](CC(N)=O)C(=O)N[C@@H](CC(=O)O)C(=O)N[C@@H](CC(=O)O)C(=O)O)C(C)C)C(C)C)[C@@H](C)O` [AcF-2-5], the “Concentration, required for complete inhibition of [Ca^2+ I] release” value (CXCR4) is reported as 10 µM.

`CC[C@H](C)[C@H](NC(=O)[C@H](CCC(N)=O)NC(=O)[C@H](CC(C)C)NC(=O)[C@H](C)NC(=O)[C@H](CO)NC(=O)[C@H](CCC(N)=O)NC(=O)[C@H](Cc1c[nH]c2ccccc12)NC(=O)[C@H](CCC(=O)O)NC(=O)[C@H](CC(=O)O)NC(=O)[C@@H](N)CC(=O)O)C(=O)N[C@@H](CC(C)C)C(=O)N[C@@H](CC(C)C)C(=O)N[C@@H](Cc1ccc(O)cc1)C(=O)N[C@@H](CO)C(=O)N[C@H](C(=O)N[C@H](C(=O)N[C@@H](Cc1ccccc1)C(=O)N[C@@H](CC(C)C)C(=O)N[C@@H](CC(C)C)C(=O)N[C@@H](CO)C(=O)N[C@H](C(=O)NCC(=O)N[C@@H](CC(N)=O)C(=O)N[C@H](C(=O)N[C@@H](CC(C)C)C(=O)N[C@H](C(=O)N[C@H](C(=O)N[C@H](C(=O)N[C@H](C(=O)O)C(C)C)[C@@H](C)O)[C@@H](C)CC)C(C)C)[C@@H](C)O)C(C)C)[C@@H](C)CC)[C@@H](C)CC` [CCKAR-1-6] (H-DDEWQSALQILLYSIIFLLSVGNTLVITV-OH) showed an IC50 (CCKAR; fluorescent agonist rhodamine green CCK-8, read-out: IC50 in inhibiton of RG-CCK-8 binding) of 20 µM.

`CC[C@H](C)[C@H](NC(=O)CNC(=O)[C@@H]1CCCN1C(=O)[C@H](CC(C)C)NC(=O)[C@H](CC(C)C)NC(=O)[C@H](Cc1ccccc1)NC(=O)[C@H](CC(C)C)NC(=O)[C@@H](NC(=O)[C@H](CC(C)C)NC(=O)[C@H](CC(C)C)NC(=O)[C@H](CC(C)C)NC(=O)[C@H](Cc1ccccc1)NC(=O)[C@@H](NC(=O)[C@H](CCC(N)=O)NC(=O)[C@H](CC(=O)O)NC(=O)[C@@H](N)CC(=O)O)[C@@H](C)O)[C@@H](C)CC)C(=O)N[C@H](C(=O)N[C@@H](CCSC)C(=O)N[C@H](C(=O)N[C@H](C(=O)N[C@@H](C)C(=O)N[C@@H](Cc1ccc(O)cc1)C(=O)NCC(=O)N[C@@H](CC(C)C)C(=O)O)C(C)C)C(C)C)C(C)C` [CCKAR-5-3] (H-DDQTFLLLILFLLPGIVMVVAYGL-OH) was tested, and the IC50 (CCKAR) was > 50 µM.

In the case of `CC[C@H](C)[C@H](N)C(=O)N[C@H](C(=O)N[C@H](C(=O)N[C@@H](CC(C)C)C(=O)N[C@@H](Cc1ccccc1)C(=O)N[C@@H](Cc1ccccc1)C(=O)N[C@@H](CC(C)C)C(=O)N[C@@H](CS)C(=O)N[C@@H](Cc1c[nH]c2ccccc12)C(=O)N[C@@H](CCSC)C(=O)N1CCC[C@H]1C(=O)N[C@H](C(=O)N[C@@H](Cc1ccccc1)C(=O)N[C@@H](CO)C(=O)N[C@@H](C)C(=O)N[C@@H](CC(N)=O)C(=O)N[C@@H](C)C(=O)N[C@@H](Cc1c[nH]c2ccccc12)C(=O)N[C@@H](CCCNC(=N)N)C(=O)N[C@@H](C)C(=O)N[C@@H](Cc1ccc(O)cc1)C(=O)N[C@@H](CC(=O)O)C(=O)N[C@H](C(=O)N[C@H](C(=O)N[C@@H](CC(=O)O)C(=O)N[C@@H](CC(=O)O)C(=O)O)C(C)C)[C@@H](C)O)[C@@H](C)CC)C(C)C)C(C)C` [CCKAR-6-4] (H-IVVLFFLCWMPIFSANAWRAYDTVDD-OH), the IC50 (CCKAR) is reported as > 50 µM.

`CC[C@H](C)[C@H](NC(=O)[C@@H](NC(=O)[C@H](Cc1ccccc1)NC(=O)[C@H](CC(C)C)NC(=O)[C@@H](N)CC(C)C)C(C)C)C(=O)N[C@H](C(=O)N[C@@H](CC(C)C)C(=O)N1CCC[C@H]1C(=O)N[C@@H](Cc1ccccc1)C(=O)N[C@@H](Cc1c[nH]c2ccccc12)C(=O)N[C@@H](C)C(=O)N[C@H](C(=O)N[C@@H](CC(=O)O)C(=O)N[C@@H](C)C(=O)N[C@H](C(=O)N[C@@H](C)C(=O)N[C@@H](CC(N)=O)C(=O)N[C@@H](Cc1c[nH]c2ccccc12)C(=O)N[C@@H](Cc1ccc(O)cc1)C(=O)N[C@@H](Cc1ccccc1)C(=O)NCC(=O)N[C@@H](CC(N)=O)C(=O)N[C@@H](CC(=O)O)C(=O)N[C@@H](CC(=O)O)C(=O)O)C(C)C)C(C)C)[C@@H](C)O` [Peptide F-2-2] (H-LLFVITLPFWAVDAVANWYFGNDD-OH) was tested, and the EC50 (HIV-1RF; [1]) was 2.27 µM.

`CC[C@H](C)[C@H](NC(=O)[C@H](Cc1ccccc1)NC(=O)[C@H](CC(=O)O)NC(=O)[C@@H]1CCCN1C(=O)[C@@H](NC(=O)[C@@H](NC(=O)[C@H](CC(C)C)NC(=O)[C@H](CC(C)C)NC(=O)[C@H](CC(C)C)NC(=O)[C@H](C)NC(=O)[C@@H]1CCCN1C(=O)[C@@H](NC(=O)[C@H](Cc1c[nH]c2ccccc12)NC(=O)[C@@H](NC(=O)CNC(=O)[C@@H](NC(=O)[C@H](Cc1ccc(O)cc1)NC(=O)[C@@H](N)C(C)C)C(C)C)C(C)C)[C@@H](C)CC)[C@@H](C)O)[C@@H](C)CC)C(=O)N[C@@H](Cc1ccccc1)C(=O)N[C@@H](C)C(=O)N[C@@H](CC(N)=O)C(=O)N[C@@H](CC(=O)O)C(=O)N[C@@H](CC(=O)O)C(=O)O` [Peptide F-4-2] (H-VYVGVWIPALLLTIPDFIFANDD-OH) showed an EC50 (HIV-1RF; [1]) of 0.3 µM.

With `CC[C@H](C)[C@H](NC(=O)CNC(=O)[C@@H](NC(=O)[C@H](Cc1ccc(O)cc1)NC(=O)[C@H](Cc1ccc(O)cc1)NC(=O)[C@@H]1CCCN1C(=O)[C@H](CC(C)C)NC(=O)[C@H](Cc1c[nH]c2ccccc12)NC(=O)[C@H](CS)NC(=O)[C@H](C)NC(=O)[C@H](Cc1ccccc1)NC(=O)[C@H](Cc1ccccc1)NC(=O)[C@H](C)NC(=O)[C@H](CC(C)C)NC(=O)[C@@H](NC(=O)[C@H](CC(C)C)NC(=O)[C@@H](NC(=O)[C@@H](N)C(C)C)[C@@H](C)CC)[C@@H](C)CC)[C@@H](C)CC)C(=O)N[C@@H](CO)C(=O)N[C@H](C(=O)N[C@@H](CC(=O)O)C(=O)O)[C@@H](C)CC` [Peptide F-6-1] (H-VILILAFFACWLPYYIGISID-OH) the EC50 (HIV-1RF; [1]) was > 50 µM.

For `CC[C@H](C)[C@H](NC(=O)[C@@H]1CCCN1C(=O)[C@H](CC(N)=O)NC(=O)[C@H](CC(C)C)NC(=O)[C@H](CS)NC(=O)[C@H](CS)NC(=O)[C@H](Cc1c[nH]cn1)NC(=O)[C@H](Cc1ccccc1)NC(=O)[C@H](Cc1ccccc1)NC(=O)[C@H](C)NC(=O)[C@H](CC(C)C)NC(=O)[C@H](C)NC(=O)[C@H](CCC(=O)O)NC(=O)[C@H](CC(=O)O)NC(=O)[C@@H](N)CC(=O)O)C(=O)N[C@@H](CC(C)C)C(=O)N[C@@H](Cc1ccc(O)cc1)C(=O)N[C@@H](C)C(=O)N[C@@H](Cc1ccccc1)C(=O)N[C@@H](CC(C)C)C(N)=O` [Peptide F-7-3] (H-DDEALAFFHCCLNPILYAFL-NH2; N-terminus assumed), the EC50 (HIV-1RF; 1RF) was 3.27 µM and the “Concentration, required for inhibition of signal transduction” value (CXCR4; Table 2, SDF-1α-induced intracellular calcium release) was 25 µM.

For “ACLLFVITLPFWAVDAVANWYFG NDDK(Rhod) D-OH (ACLLFVITLPFWAVDAVANWYFGNDD-{K(Rhod)-Asp-OH}; reading uncertain; also: printed as ACLLFVITLPFWAVDAVANWYFG NDDK(Rhod) D-OH) [Rhod - F-2]”, the “Concentration, required for complete inhibition of [Ca^2+ I] release” value (CXCR4) was 8 µM.

“ALAFFHCCLNPILYAFLGAK-NH2 (cysteine pairing not given here) [Peptide F-7-1]” was tested, and the “Concentration, required for complete inhibition of [Ca ^2+ i] release” value (CXCR4; [2]) was > 100 µM.

With “HIMVGLILPGIVILSCYCIII-NH2 (cysteine pairing not given here) [Peptide F-5-1]” the “Concentration, required for complete inhibition of [Ca ^2+ i] release” value (CXCR4; [2]) was >50 µM.

Reference: patent EP1056778B1, “G PROTEIN-COUPLED RECEPTOR ANTAGONISTS” (priority 1998, dated 1999)
